From US9328083B2, “2-aminated methylene or 2-esterified methylene tanshinone derivatives, and preparation method and application thereof” (HANGZHOU BENSHENG PHARMACEUTICAL CO., LTD., priority 2011, dated 2016)
≈ marks a conversion by molar mass, not a printed value. Each block holds one compound with its values, some of them ahead of it.

Tests used:
[1] = test system: RPMI8226 (multiple myeloma); test: MTT growth inhibition of multiple myeloma cells, 72 h; assay type: cell-based, human; details: Homo sapiens, RPMI 8226, 72 h; for IC50: read-out: IC50; for IC90: read-out: IC90
How it was run: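 Viability read by MTT after 72 h at 37° C, 5% CO2: compounds from a 10 mg/mL DMSO stock were diluted in medium and added at several concentrations to 6000 RPMI8226 cells per well in 1640 medium plus 10% FBS.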

[2] = test system: Jurkat (acute lymphoblastic leukemia, ALL); test: MTT growth inhibition of leukemia cells, 72 h; assay type: cell-based, human; details: for IC50 / IC90: Homo sapiens, 72 h; for IC50: read-out: IC50; for IC90: read-out: IC90
How it was run: (§1)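 Test compounds, dissolved in DMSO and further diluted with culture medium, go onto cells seeded the day before at 6000 per well in RPMI-1640/10% FBS. Plates stay 72 h in a 5% CO2 incubator at 37 °C, and cell viability is then assessed by the MTT method.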

[3] = test system: Kasumi-1 (acute myeloid leukemia M2 type, AML-M2); test: MTT growth inhibition of leukemia cells, 72 h; assay type: cell-based, human; details: Homo sapiens, Kasumi-1, 72 h; for IC50: read-out: IC50; for IC90: read-out: IC90
How it was run: as §1

[4] = test system: H9 (acute lymphoblastic leukemia, ALL); test: MTT growth inhibition of leukemia cells, 72 h; assay type: cell-based, human; details: Homo sapiens, H9, 72 h; for IC50: read-out: IC50; for IC90: read-out: IC90
How it was run: as §1

[5] = test system: K562/adr (drug-resistant, chronic myeloid leukemia, CML); test: MTT growth inhibition of leukemia cells, 72 h; assay type: cell-based, human; details: Homo sapiens, K562/Adr; for IC50: read-out: IC50; for IC90: read-out: IC90
How it was run: as §1

[6] = test system: NB4 (acute promyelocytic leukemia, AML); test: MTT growth inhibition of leukemia cells, 72 h; assay type: cell-based, human; details: Homo sapiens, NB4, 72 h; for IC50: read-out: IC50; for IC90: read-out: IC90
How it was run: as §1

[7] = test system: Hep G2 (human liver cancer cell); test: MTT growth inhibition of human solid tumor cells, 72 h; assay type: cell-based; details: Homo sapiens, HepG2, Hep G2, 72 h; for IC50: read-out: IC50; for IC90: read-out: IC90
How it was run: (§2)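 Growth medium: DMEM High Glucose, 10% FBS. Seeding density 4000 cells per well, preincubated one day at 37° C/5% CO2 before dosing with derivatives over a concentration range.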

[8] = test system: PC-3 (prostate cancer); test: as above; assay type: cell-based; details: Homo sapiens, PC-3, 72 h; for IC50: read-out: IC50; for IC90: read-out: IC90
How it was run: as §2

[9] = test system: Hela (human cervical cancer cell); test: as above; assay type: cell-based; details: Homo sapiens, HeLa, 72 h; for IC50: read-out: IC50; for IC90: read-out: IC90
How it was run: as §2

[10] = test system: SK-OV-3 (ovarian cancer cell); test: as above; assay type: cell-based; details: Homo sapiens, SK-OV-3, 72 h; for IC50: read-out: IC50; for IC90: read-out: IC90
How it was run: as §2

[11] = test system: U87 MG (malignant glioma cell); test: as above; assay type: cell-based; details: Homo sapiens, U-87 MG, U87-MG, 72 h; for IC50: read-out: IC50; for IC90: read-out: IC90
How it was run: as §2

[12] = test system: A549 (human lung cancer); test: as above; assay type: cell-based; details: Homo sapiens, A549, 72 h; for IC50: read-out: IC50; for IC90: read-out: IC90
How it was run: as §2

[13] = test system: CaES-17 (esophageal cancer cell); test: as above; assay type: cell-based; details: for IC50 / IC90: Homo sapiens, CaEs17, CaEs-17, 72 h; for IC50: read-out: IC50; for IC90: read-out: IC90
How it was run: as §2

[14] = test system: MGC 803 (human gastric cancer cell); test: as above; assay type: cell-based; details: Homo sapiens, MGC-803, 72 h; for IC50: read-out: IC50; for IC90: read-out: IC90
How it was run: as §2

[15] = test system: RKO (human colon adenocarcinoma cell); test: as above; assay type: cell-based; details: Homo sapiens; for IC50: read-out: IC50; for IC90: read-out: IC90
How it was run: as §2

[16] = test system: MG63 (osteosarcoma); test: as above; assay type: cell-based; details: Homo sapiens, MG-63, 72 h; for IC50: read-out: IC50; for IC90: read-out: IC90
How it was run: as §2

[17] = test system: PANC-1 (pancreatic cancer); test: as above; assay type: cell-based; details: for IC50 / IC90: Homo sapiens, PANC-1, 72 h; for IC50: read-out: IC50; for IC90: read-out: IC90
How it was run: as §2

[18] = test system: CNE (nasopharyngeal carcinoma cell); test: as above; assay type: cell-based; details: Homo sapiens; for IC50: read-out: IC50; for IC90: read-out: IC90
How it was run: as §2

[19] = test system: Hep-2 (laryngeal carcinoma); test: as above; assay type: cell-based; details: Homo sapiens, HEp-2, 72 h; for IC50: read-out: IC50; for IC90: read-out: IC90
How it was run: as §2

[20] = test system: Becap37 (human breast cancer cell); test: as above; assay type: cell-based; details: Homo sapiens, Becap-37, 72 h; for IC50: read-out: IC50; for IC90: read-out: IC90
How it was run: as §2

- IC50 [1]: 0.39 µg/mL (≈ 1.07 µM)
- IC90 [1]: 0.8 µg/mL (≈ 2.2 µM)
- IC50 [2]: 0.16 µg/mL (≈ 0.44 µM)
- IC90 [2]: 0.36 µg/mL (≈ 0.991 µM)
- IC50 [3]: 0.12 µg/mL (≈ 0.33 µM)
- IC90 [3]: 0.23 µg/mL (≈ 0.633 µM)
- IC50 [4]: 0.45 µg/mL (≈ 1.24 µM)
- IC90 [4]: 0.96 µg/mL (≈ 2.64 µM)
- IC50 [5]: 0.31 µg/mL (≈ 0.853 µM)
- IC90 [5]: 0.86 µg/mL (≈ 2.37 µM)
- IC50 [6]: 0.14 µg/mL (≈ 0.385 µM)
- IC90 [6]: 0.41 µg/mL (≈ 1.13 µM)
- IC50 [7]: 0.56 µg/mL (≈ 1.54 µM)
- IC90 [7]: 1.82 µg/mL (≈ 5.01 µM)
- IC50 [8]: 0.63 µg/mL (≈ 1.73 µM)
- IC90 [8]: 2 µg/mL (≈ 5.5 µM)
- IC50 [9]: 0.67 µg/mL (≈ 1.84 µM)
- IC90 [9]: 1.8 µg/mL (≈ 4.95 µM)
- IC50 [10]: 1.44 µg/mL (≈ 3.96 µM)
- IC90 [10]: 1.97 µg/mL (≈ 5.42 µM)
- IC50 [11]: 0.76 µg/mL (≈ 2.09 µM)
- IC90 [11]: 1.82 µg/mL (≈ 5.01 µM)
- IC50 [12]: 0.83 µg/mL (≈ 2.28 µM)
- IC90 [12]: 3.13 µg/mL (≈ 8.61 µM)
- IC50 [13]: 0.45 µg/mL (≈ 1.24 µM)
- IC90 [13]: 0.91 µg/mL (≈ 2.5 µM)
- IC50 [14]: 0.37 µg/mL (≈ 1.02 µM)
- IC90 [14]: 2.94 µg/mL (≈ 8.09 µM)
- IC50 [15]: 0.125 µg/mL (≈ 0.344 µM)
- IC90 [15]: 1.3 µg/mL (≈ 3.58 µM)
- IC50 [16]: 0.78 µg/mL (≈ 2.15 µM)
- IC90 [16]: 1.76 µg/mL (≈ 4.84 µM)
- IC50 [17]: 0.27 µg/mL (≈ 0.743 µM)
- IC90 [17]: 2.6 µg/mL (≈ 7.15 µM)
- IC50 [18]: 1.4 µg/mL (≈ 3.85 µM)
- IC90 [18]: 3 µg/mL (≈ 8.26 µM)
- IC50 [19]: 0.87 µg/mL (≈ 2.39 µM)
- IC90 [19]: 2.79 µg/mL (≈ 7.68 µM)
- IC50 [20]: 0.76 µg/mL (≈ 2.09 µM)
- IC90 [20]: 1.77 µg/mL (≈ 4.87 µM)
Compound: Cc1c(CN(C)CCO)oc2c1C(=O)C(=O)c1c-2ccc2c(C)cccc12 [BS-TA-B17]
- improvement of anti-Jurkat activity as compared with tanshinone I ([2]; vs tanshinone I): more than 10 fold
- improvement of anti-CaES-17 activity as compared with tanshinone I ([13]; CaES-17, vs tanshinone I): more than 7 fold
- improvement of anti-PANC-1 activity as compared with tanshinone I ([17]; PANC-1, vs tanshinone I): more than 10 fold

- IC50 [1]: 5.78 µg/mL (≈ 16.8 µM)
- IC90 [1]: 10.5 µg/mL (≈ 30.5 µM)
- IC50 [2]: 3.41 µg/mL (≈ 9.93 µM)
- IC90 [2]: 9.55 µg/mL (≈ 27.8 µM)
- IC50 [3]: 0.83 µg/mL (≈ 2.42 µM)
- IC90 [3]: 1.8 µg/mL (≈ 5.24 µM)
- IC50 [4]: 2.2 µg/mL (≈ 6.41 µM)
- IC90 [4]: 5.9 µg/mL (≈ 17.2 µM)
- IC50 [5]: 1.3 µg/mL (≈ 3.79 µM)
- IC90 [5]: 2.73 µg/mL (≈ 7.95 µM)
- IC50 [6]: 1.53 µg/mL (≈ 4.46 µM)
- IC90 [6]: 5.46 µg/mL (≈ 15.9 µM)
- IC50 [7]: 7.3 µg/mL (≈ 21.3 µM)
- IC90 [7]: 25.8 µg/mL (≈ 75 µM)
- IC50 [8]: 7.3 µg/mL (≈ 21.3 µM)
- IC90 [8]: 15.1 µg/mL (≈ 44 µM)
- IC50 [9]: 3.3 µg/mL (≈ 9.61 µM)
- IC90 [9]: 7.9 µg/mL (≈ 23 µM)
- IC50 [10]: > 16 µg/mL
- IC90 [10]: > 16 µg/mL
- IC50 [11]: 6.79 µg/mL (≈ 19.8 µM)
- IC90 [11]: 21.3 µg/mL (≈ 62.1 µM)
- IC50 [12]: 1.8 µg/mL (≈ 5.24 µM)
- IC90 [12]: 10 µg/mL (≈ 29.1 µM)
- IC50 [13]: 8.71 µg/mL (≈ 25.4 µM)
- IC90 [13]: 14.2 µg/mL (≈ 41.5 µM)
- IC50 [14]: 7.01 µg/mL (≈ 20.4 µM)
- IC90 [14]: 17.3 µg/mL (≈ 50.4 µM)
- IC50 [15]: 2.46 µg/mL (≈ 7.16 µM)
- IC90 [15]: 27.9 µg/mL (≈ 81.1 µM)
- IC50 [16]: 4.68 µg/mL (≈ 13.6 µM)
- IC90 [16]: 15.3 µg/mL (≈ 44.6 µM)
- IC50 [17]: 1.14 µg/mL (≈ 3.32 µM)
- IC90 [17]: 7.28 µg/mL (≈ 21.2 µM)
- IC50 [18]: 5.99 µg/mL (≈ 17.4 µM)
- IC90 [18]: 79 µg/mL (≈ 230 µM)
- IC50 [19]: 5.16 µg/mL (≈ 15 µM)
- IC90 [19]: 23.7 µg/mL (≈ 69 µM)
- IC50 [20]: 6.73 µg/mL (≈ 19.6 µM)
- IC90 [20]: 15.1 µg/mL (≈ 43.9 µM)
Compound: C#CCNCc1oc2c(c1C)C(=O)C(=O)c1c-2ccc2c(C)cccc12 [BS-TA-B21]
